Patent US11096906B2, “Pharmaceutical composition for preventing or treating Alzheimer's disease” (SFCBIO. CO., LTD., priority 2015, dated 2021)

Columns and labels:
Format in all cases: cell-based
β-secretase = experiment: Amount of β-secretase protein in APPwt-CHO cells, by western blot; conditions: for reduction of the amount of β-secretase protein as compared to the control group: APPwt-CHO cells
Description: (§1) In order to evaluate the ability of suppressing β-amyloid formation of Compounds 1-3, APPwt-CHO cells obtained by overexpressing APP in CHO cells were used and the amount of the sAPPβ protein cleaved by β-secretase and released out of the cells was measured by western blot. When the APP precursor protein is cleaved first by β-secretase, sAPPβ is released out of the cell. The protein remaining attached to the membrane is cleaved again by γ-secretase to produce β-amyloid. Accordingly, the amount of β-secretase and sAPPβ is proportional to the amount of the produced β-amyloid. Therefore, the amount of the two proteins was measured by western blot.

APP*t-CHO cells = experiment: MTT-based cytotoxicity assay
Description: The cytotoxicity of Compounds 1-3 separated and identified in Examples 1-5 was investigated by MTT-based cytotoxicity assay. APP*t-CHO cells treated with Compounds 1-3 were cultured for 24 hours. After adding a 5 mg/mL MTT solution, the cells were cultured for 4 hours. After removing the culture medium and lysing the cells for 30 minutes by adding DMSO, absorbance was measured at 540 nm using the Emax precision microplate reader (Molecular Devices, CA, USA).

sAPPβ protein = experiment: Amount of sAPPβ protein released from APPwt-CHO cells, by western blot; conditions: for reduction of the amount of sAPPβ protein as compared to the control group: APPwt-CHO cells
Description: as §1

[1] = 100 μg/mL, cells cultured 24 hours, MTT

SMILES | reduction of the amount of β-secretase protein as compared to the control group (β-secretase; 10 μg/mL) | reduction of the amount of β-secretase protein as compared to the control group (β-secretase; 20 μg/mL) | cytotoxicity (APP*t-CHO cells; [1]) | reduction of the amount of sAPPβ protein as compared to the control group (sAPPβ protein; 10 μg/mL) | reduction of the amount of sAPPβ protein as compared to the control group (sAPPβ protein; 20 μg/mL) | reduction of the amount of β-secretase protein as compared to the control group (β-secretase; 100 μg/mL) | reduction of the amount of sAPPβ protein as compared to the control group (sAPPβ protein; 100 μg/mL) | decrease of the amount of β-secretase (in words) (β-secretase) | cytotoxicity (APP*t-CHO cells; 20 μg/mL) | concentration at which toxicity was shown (APP*t-CHO cells; cells cultured 24 hours, MTT) [ng/mL] | reduction of the amount of sAPPβ (in words) (sAPPβ protein; 20 μg/mL)
CCCC(=O)c1c(O)cc(O)cc1O [Compound 1, butyrylphloroglucinol] | about 10% | about 30% | no toxicity | about 20% | about 70% | – | – | – | – | – | –
CCC(=O)c1c(O)cc(O)c(C)c1O [Compound 2, 2-propionyl-4-methylphloroglucinol] | – | about 40% | no toxicity | – | about 40% | about 60% | about 80% | – | – | – | –
CCCC(=O)c1c(O)cc(O)c(C)c1O [Compound 3, 2-butyryl-4-methylphloroglucinol] | about 20% | about 30% | showed toxicity | about 40% | about 80% | – | – | effectively decreased | no toxicity was observed | ≥ 30000 | almost perfectly
